For experiment [1], the system named is CD69 expression on CD19+ B cells in human whole blood stimulated with anti-human IgD. The experiment is described as follows: In Vitro whole blood CD69 Assay. As to conditions: human heparinized whole blood, anti-human IgD stimulation overnight, percentage of CD19+ B cells expressing CD69, flow cytometry, read-out: IC50. The experiment is classed as cell-based. A general note: A flow cytometer gives signals particle by particle.

The target of a further experiment is BTK (Homo sapiens (Human), UniProt Q06187). The experiment is described as follows: In Vitro BTK Kinase Assay: Btk-PolyGAT-LS Assay. The experiment is classed as biochemical. As to conditions: BTK enzyme 0.25 nM, ATP 10 μM, polyGAT 100 nM, 30 minutes incubation, TRF readout; read-out: IC50. The gist of the method: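 Human BTK activity was measured with final 10 μM ATP and 100 nM polyGAT substrate in pH 7.5 Tris buffer with 10 mM MgCl2, DTT, Triton X-100 and casein.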
Sequence of BTK (Q06187 whole entry): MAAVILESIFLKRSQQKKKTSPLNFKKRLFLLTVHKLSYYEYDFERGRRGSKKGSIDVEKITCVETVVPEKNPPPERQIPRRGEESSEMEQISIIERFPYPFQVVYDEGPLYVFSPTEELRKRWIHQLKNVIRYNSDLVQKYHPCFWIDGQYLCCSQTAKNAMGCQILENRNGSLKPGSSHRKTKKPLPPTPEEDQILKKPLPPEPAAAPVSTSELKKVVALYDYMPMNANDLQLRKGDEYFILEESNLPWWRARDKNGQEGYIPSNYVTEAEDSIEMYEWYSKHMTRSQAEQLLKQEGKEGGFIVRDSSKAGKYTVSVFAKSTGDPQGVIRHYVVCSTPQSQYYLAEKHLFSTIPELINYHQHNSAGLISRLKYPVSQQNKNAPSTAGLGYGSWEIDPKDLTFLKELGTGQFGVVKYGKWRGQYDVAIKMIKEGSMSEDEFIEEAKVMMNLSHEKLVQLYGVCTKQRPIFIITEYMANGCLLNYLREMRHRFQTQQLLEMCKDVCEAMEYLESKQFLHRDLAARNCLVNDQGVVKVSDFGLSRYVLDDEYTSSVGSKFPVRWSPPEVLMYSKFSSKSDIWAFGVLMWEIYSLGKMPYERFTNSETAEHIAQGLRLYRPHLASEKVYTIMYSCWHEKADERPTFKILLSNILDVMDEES

Each structure is given as a SMILES string. Like-named read-outs stand apart in the source and are kept apart here.

Usually IC50 stands for the concentration that inhibits the measured activity by half. As for `C=CC(=O)N1CCC[C@](F)(COc2nc(-c3cnn(C)c3)cn3nccc23)C1` [Example 187, (R)-1-(3-fluoro-3-(((6-(1-methyl-1H-pyrazol-4-yl)pyrazolo[1,5-a]pyrazin-4-yl)oxy)methyl)piperidin-1-yl)prop-2-en-1-one], the IC50 was less than 1 µM in experiment [1] (Homo sapiens, B-cell) and less than 0.001 µM on BTK.
For `C=CC(=O)N1CCC[C@@](F)(COc2nc(-c3cnn(C)c3)cn3nccc23)C1` [Example 188, (S)-1-(3-fluoro-3-(((6-(1-methyl-1H-pyrazol-4-yl)pyrazolo[1,5-a]pyrazin-4-yl)oxy)methyl)piperidin-1-yl)prop-2-en-1-one] the same measures were less than 1 µM and 0.001 to 0.01 µM.
For `C=CC(=O)N1CCC(C)(COc2nc(-c3cnn(C)c3)cn3nccc23)CC1` [Example 189, 1-(4-methyl-4-(((6-(1-methyl-1H-pyrazol-4-yl)pyrazolo[1,5-a]pyrazin-4-yl)oxy)methyl)piperidin-1-yl)prop-2-en-1-one] the same measures were 1 to 10 µM and 0.001 to 0.01 µM.
For `C[C@@H]1O[C@H]1C(=O)N1CC[C@@H]2[C@H]1C[C@@]2(C)Oc1nc(-c2cnn(C)c2)cn2nccc12` [Example 192, ((1R,5R,6R)-6-methyl-6-((6-(1-methyl-1H-pyrazol-4-yl)pyrazolo[1,5-a]pyrazin-4-yl)oxy)-2-azabicyclo[3.2.0]heptan-2-yl)((2R,3S)-3-methyloxiran-2-yl)methanone] the same measures were 1 to 10 µM and 0.01 to 1 µM.
Consider `C=CC(=O)N1C[C@H]2C[C@@H](Oc3nc(-c4cnn(C)c4)cn4ncc(C)c34)[C@H]2C1` [Example 197, 1-((1S,5R,6R)-6-((3-methyl-6-(1-methyl-1H-pyrazol-4-yl)pyrazolo[1,5-a]pyrazin-4-yl)oxy)-3-azabicyclo[3.2.0]heptan-3-yl)prop-2-en-1-one], for which the IC50 in experiment [1] (Homo sapiens, B-cell) was less than 1 µM; on BTK, less than 0.001 µM.
Consider `C=CC(=O)N(C)[C@H]1C[C@@](C)(Oc2nc(-c3cnn(C)c3)cn3ncc(F)c23)C1` [Example 211, N-((1s,3s)-3-((3-fluoro-6-(1-methyl-1H-pyrazol-4-yl)pyrazolo[1,5-a]pyrazin-4-yl)oxy)-3-methylcyclobutyl)-N-methylacrylamide], for which the IC50 in experiment [1] (Homo sapiens, B-cell) was less than 1 µM; on BTK it was less than 0.001 µM.
For `C=CC(=O)N1CC[C@]2(C1)C[C@](C)(Oc1nc(-c3cnn(C)c3)cn3nccc13)C2` [Example 212, rac-1-((2s,4r)-2-methyl-2-((6-(1-methyl-1H-pyrazol-4-yl)pyrazolo[1,5-a]pyrazin-4-yl)oxy)-6-azaspiro[3.4]octan-6-yl)prop-2-en-1-one], the figures for the IC50 (in experiment [1]; on BTK) were 1 to 10 µM and 0.001 to 0.01 µM, respectively.
For `C=CC(=O)N1CC[C@]2(C1)C[C@@](C)(Oc1nc(-c3cnn(C)c3)cn3nccc13)C2` [Example 213, rac-1-((2r,4s)-2-methyl-2-((6-(1-methyl-1H-pyrazol-4-yl)pyrazolo[1,5-a]pyrazin-4-yl)oxy)-6-azaspiro[3.4]octan-6-yl)prop-2-en-1-one] the same measures were 1 to 10 µM and 0.001 to 0.01 µM.
For `C=CC(=O)N(C)[C@@H]1C[C@@H](Oc2nc(-c3cnn(C)c3)cn3nccc23)C1(C)C` [Example 220, N-((1R,3R)-2,2-dimethyl-3-((6-(1-methyl-1H-pyrazol-4-yl)pyrazolo[1,5-a]pyrazin-4-yl)oxy)cyclobutyl)-N-methylacrylamide], the IC50 fell in the range of 1 to 10 µM in experiment [1] (Homo sapiens, B-cell) and 0.001 to 0.01 µM on BTK.
For `C=CC(=O)NC12CCCC(Oc3nc(-c4cnn(C)c4)cn4nccc34)(C1)C2` [Example 224, N-(5-((6-(1-methyl-1H-pyrazol-4-yl)pyrazolo[1,5-a]pyrazin-4-yl)oxy)bicyclo[3.1.1]heptan-1-yl)acrylamide] the same measures were 1 to 10 µM and less than 0.001 µM.
For `C=CC(=O)N(CC(F)F)[C@H]1C[C@@](C)(Oc2nc(-c3cnn(C)c3)cn3nccc23)C1` [Example 226, N-(2,2-difluoroethyl)-N-((1s,3s)-3-methyl-3-((6-(1-methyl-1H-pyrazol-4-yl)pyrazolo[1,5-a]pyrazin-4-yl)oxy)cyclobutyl)acrylamide] the same measures were less than 1 µM and less than 0.001 µM.
For `C=CC(=O)N[C@H]1C[C@@](C)(Oc2nc(-c3cnn(C)c3)cn3nccc23)C1` [Example 228, N-((1s,3s)-3-methyl-3-((6-(1-methyl-1H-pyrazol-4-yl)pyrazolo[1,5-a]pyrazin-4-yl)oxy)cyclobutyl)acrylamide] the same measures were less than 1 µM and less than 0.001 µM.
On to `C=CC(=O)N(C)[C@H]1C[C@@](C)(Oc2nc(-c3cnn(C)c3)cn3ncc(C4CC4)c23)C1` [Example 229, N-((1s,3s)-3-((3-cyclopropyl-6-(1-methyl-1H-pyrazol-4-yl)pyrazolo[1,5-a]pyrazin-4-yl)oxy)-3-methylcyclobutyl)-N-methylacrylamide], for which the IC50 was less than 1 µM in experiment [1] (Homo sapiens, B-cell) and less than 0.001 µM at BTK.
For `Cn1cc(-c2cn3nccc3c(O[C@]3(C)C[C@H](NC(=O)/C=C/C(F)(F)F)C3)n2)cn1` [Example 231, (E)-4,4,4-trifluoro-N-((1s,3s)-3-methyl-3-((6-(1-methyl-1H-pyrazol-4-yl)pyrazolo[1,5-a]pyrazin-4-yl)oxy)cyclobutyl)but-2-enamide] the same measures were less than 1 µM and less than 0.001 µM.
For `Cn1cc(-c2cn3nccc3c(O[C@]3(C)C[C@H](N(C)C(=O)/C=C/C(F)(F)F)C3)n2)cn1` [Example 232, (E)-4,4,4-trifluoro-N-methyl-N-((1s,3s)-3-methyl-3-((6-(1-methyl-1H-pyrazol-4-yl)pyrazolo[1,5-a]pyrazin-4-yl)oxy)cyclobutyl)but-2-enamide], the IC50 in experiment [1] (Homo sapiens, B-cell) is less than 1 µM; on BTK, less than 0.001 µM.
For `CC#CC(=O)N(CC(F)F)[C@H]1C[C@@](C)(Oc2nc(-c3cnn(C)c3)cn3nccc23)C1` [Example 233, N-(2,2-difluoroethyl)-N-((1s,3s)-3-methyl-3-((6-(1-methyl-1H-pyrazol-4-yl)pyrazolo[1,5-a]pyrazin-4-yl)oxy)cyclobutyl)but-2-ynamide] the same measures were less than 1 µM and less than 0.001 µM.
For `C=CC(=O)N1[C@H]2CC[C@@H]1[C@H](Oc1nc(-c3cnn(C)c3)cn3nccc13)C2` [Example 234, 1-((1R,2R,4S)-2-((6-(1-methyl-1H-pyrazol-4-yl)pyrazolo[1,5-a]pyrazin-4-yl)oxy)-7-azabicyclo[2.2.1]heptan-7-yl)prop-2-en-1-one] the same measures were 1 to 10 µM and less than 0.001 µM.
For `C=CC(=O)N1[C@@H]2CC[C@H]1[C@@H](Oc1nc(-c3cnn(C)c3)cn3nccc13)C2` [Example 235, 1-((1S,2S,4R)-2-((6-(1-methyl-1H-pyrazol-4-yl)pyrazolo[1,5-a]pyrazin-4-yl)oxy)-7-azabicyclo[2.2.1]heptan-7-yl)prop-2-en-1-one] the same measures were less than 1 µM and less than 0.001 µM.

(Values after patent US20240083900A1, “PYRAZOLO[1,5-A]PYRAZINE DERIVATIVES AS BTK INHIBITORS” (BIOGEN MA INC., priority 2020, published 2024).)
